From patent EP4759815A1, “FUSED TRICYCLIC COMPOUND, PHARMACEUTICAL COMPOSITION THEREOF, AND USE THEREOF” (Haihe Biopharma Co., Ltd., priority 2023, dated 2025) come the findings set out here.

Data set [1] concerns MDA-MB-436 cells. As to the kind of experiment: MDA-MB-436 cell proliferation inhibition test (CellTiter-Glo, 7 days). Particulars: Homo sapiens, MDA-MB-436, 168 h, 7 days incubation. The data set is classed as cell-based.
Data set [2] deals with Recombinant human PARP1 protein (Homo sapiens, UniProt P09874). As to the kind of experiment: PARP1 inhibitory activity (histone substrate, chemiluminescent ELISA). Particulars: for IC50: histone substrate, 500 µM NAD+ added to the substrate solution, read-out: PARP1 IC50; for PARP1/2 Fold selectivity: ratio of PARP2 IC50 to PARP1 IC50. The class given is biochemical. A general note: In an ELISA, binding on a coated surface is turned into a signal by an enzyme label.

The target in data set [3] is T1, PDE3A (Homo sapiens, UniProt Q14432).
T1 construct: purchased ICE G13020203013
As to the kind of experiment: PDE3A enzyme activity test (IMAP FP). The data set is classed as biochemical. Particulars: PDE3A protein 0.2 nM, FAM-cAMP 200 nM, 60 minutes at rt; off-target safety.

Data set [4] can be described thus: Test of blood-brain barrier properties in rats. The data set is classed as in vivo. Particulars: male, Wistar Han, brain/plasma; rat, intravenous 1 mg/kg, after 4 h; read-out: Ratio % (brain/blood).
The target in data set [5] is T2, recombinant human PARP2 protein (Homo sapiens, UniProt Q9UGN5).
T2 construct: purchased BPS 80502
The data set can be described thus: PARP2 inhibitory activity (histone substrate, chemiluminescent ELISA). The class given is biochemical. Particulars: histone substrate; read-out: PARP2 IC50.

Data set [6] in a line: Preliminary pharmacokinetic tests in mice. The class given is in vivo. Particulars: male, ICR.

T2 sequence (Q9UGN5 whole entry): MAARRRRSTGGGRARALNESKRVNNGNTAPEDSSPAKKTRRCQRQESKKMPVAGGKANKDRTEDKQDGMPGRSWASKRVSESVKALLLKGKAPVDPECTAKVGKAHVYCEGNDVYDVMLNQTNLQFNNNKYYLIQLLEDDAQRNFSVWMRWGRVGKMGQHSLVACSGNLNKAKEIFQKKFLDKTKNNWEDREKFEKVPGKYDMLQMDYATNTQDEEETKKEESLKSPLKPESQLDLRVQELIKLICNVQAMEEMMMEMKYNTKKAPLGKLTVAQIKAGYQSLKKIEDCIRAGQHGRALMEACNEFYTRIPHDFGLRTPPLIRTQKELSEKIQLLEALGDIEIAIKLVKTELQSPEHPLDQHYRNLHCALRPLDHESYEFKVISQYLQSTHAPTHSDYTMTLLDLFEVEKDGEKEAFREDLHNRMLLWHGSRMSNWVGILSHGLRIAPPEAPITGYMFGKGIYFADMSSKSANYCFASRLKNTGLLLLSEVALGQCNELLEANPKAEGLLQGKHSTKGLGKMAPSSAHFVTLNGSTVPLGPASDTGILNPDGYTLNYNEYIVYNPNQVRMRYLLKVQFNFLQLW
T1 sequence (Q14432 whole entry, species assumed): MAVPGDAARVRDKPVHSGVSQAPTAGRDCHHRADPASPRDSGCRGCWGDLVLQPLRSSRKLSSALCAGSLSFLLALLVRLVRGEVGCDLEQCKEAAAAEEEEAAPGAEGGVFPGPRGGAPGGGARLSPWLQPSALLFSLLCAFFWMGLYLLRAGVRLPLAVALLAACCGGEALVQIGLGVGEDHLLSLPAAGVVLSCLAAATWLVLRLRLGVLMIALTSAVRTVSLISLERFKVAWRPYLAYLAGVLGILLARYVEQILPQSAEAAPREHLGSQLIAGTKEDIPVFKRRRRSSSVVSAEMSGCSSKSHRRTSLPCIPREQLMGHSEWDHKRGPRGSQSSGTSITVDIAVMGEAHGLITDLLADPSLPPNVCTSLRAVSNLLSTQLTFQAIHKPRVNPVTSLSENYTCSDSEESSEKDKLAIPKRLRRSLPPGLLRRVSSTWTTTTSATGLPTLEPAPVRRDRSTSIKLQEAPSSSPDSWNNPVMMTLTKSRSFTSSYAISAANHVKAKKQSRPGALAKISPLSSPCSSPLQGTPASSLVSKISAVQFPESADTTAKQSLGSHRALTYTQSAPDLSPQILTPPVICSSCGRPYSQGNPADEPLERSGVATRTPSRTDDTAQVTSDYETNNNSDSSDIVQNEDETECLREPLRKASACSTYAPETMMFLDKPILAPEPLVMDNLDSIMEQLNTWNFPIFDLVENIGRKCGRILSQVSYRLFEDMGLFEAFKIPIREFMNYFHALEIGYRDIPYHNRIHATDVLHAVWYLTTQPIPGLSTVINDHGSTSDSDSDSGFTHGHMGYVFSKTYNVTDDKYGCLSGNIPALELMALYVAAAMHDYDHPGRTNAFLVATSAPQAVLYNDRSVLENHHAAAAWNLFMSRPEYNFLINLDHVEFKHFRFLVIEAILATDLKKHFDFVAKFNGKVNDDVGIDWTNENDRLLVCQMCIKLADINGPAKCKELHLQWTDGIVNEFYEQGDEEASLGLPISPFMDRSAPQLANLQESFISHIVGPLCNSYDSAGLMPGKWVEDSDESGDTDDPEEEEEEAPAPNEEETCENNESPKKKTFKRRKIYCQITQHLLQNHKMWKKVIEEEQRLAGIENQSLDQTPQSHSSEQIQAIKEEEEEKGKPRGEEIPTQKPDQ
Recombinant human PARP1 protein, sequence (P09874 whole entry): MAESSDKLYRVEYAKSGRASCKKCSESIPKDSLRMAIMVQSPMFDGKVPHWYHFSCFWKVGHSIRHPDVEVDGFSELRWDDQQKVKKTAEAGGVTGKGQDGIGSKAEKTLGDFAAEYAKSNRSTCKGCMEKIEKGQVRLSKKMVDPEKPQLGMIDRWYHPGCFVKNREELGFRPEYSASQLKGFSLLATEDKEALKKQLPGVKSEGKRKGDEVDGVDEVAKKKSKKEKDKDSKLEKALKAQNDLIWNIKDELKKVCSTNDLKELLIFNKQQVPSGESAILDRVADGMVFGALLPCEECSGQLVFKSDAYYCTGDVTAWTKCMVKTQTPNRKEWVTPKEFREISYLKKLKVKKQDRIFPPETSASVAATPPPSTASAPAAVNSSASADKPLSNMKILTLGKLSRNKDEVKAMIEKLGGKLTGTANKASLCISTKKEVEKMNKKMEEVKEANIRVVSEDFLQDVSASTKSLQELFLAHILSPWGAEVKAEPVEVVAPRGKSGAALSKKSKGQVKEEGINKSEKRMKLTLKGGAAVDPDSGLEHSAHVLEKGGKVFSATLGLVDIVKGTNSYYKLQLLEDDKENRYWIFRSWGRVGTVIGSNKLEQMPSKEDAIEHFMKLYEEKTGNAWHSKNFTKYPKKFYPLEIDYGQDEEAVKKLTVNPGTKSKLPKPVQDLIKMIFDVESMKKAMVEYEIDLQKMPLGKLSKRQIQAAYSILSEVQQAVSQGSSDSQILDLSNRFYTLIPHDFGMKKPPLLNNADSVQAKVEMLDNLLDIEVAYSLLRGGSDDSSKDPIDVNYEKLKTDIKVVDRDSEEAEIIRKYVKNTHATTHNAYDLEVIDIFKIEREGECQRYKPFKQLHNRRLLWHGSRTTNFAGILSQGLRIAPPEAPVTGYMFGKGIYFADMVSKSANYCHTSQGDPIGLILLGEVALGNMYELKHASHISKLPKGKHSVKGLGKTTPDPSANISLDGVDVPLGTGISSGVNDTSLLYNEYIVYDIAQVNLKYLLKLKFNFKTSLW

For the compound `CC[C@@H]1C(=O)Nc2cc(CN3CCN(c4ccc(C(=O)NC)nc4F)CC3)cc3cnn1c23` [Compound 5-2], the IC50 (usually the concentration that gives 50% inhibition) in data set [1] is 14.8 nM; in data set [2], 1.03 nM; in data set [3], over 10000 nM.

Consider `CNC(=O)c1ccc(N2CCN(Cc3cc4c5c(cnn5[C@H](C)C(=O)N4)c3)CC2)c(Cl)n1` [Compound 6-2], for which the IC50 in data set [3] was found to be 239 nM.

In the case of `CNC(=O)c1ccc(N2CCN(Cc3cc4c5c(cnn5C(C)C(=O)N4)c3)CC2)c(C)n1` (centres unmarked) [Compound 7], in data set [4], the Kp at 4 h turned out to be 0.138.

Consider `CNC(=O)c1ccc(N2CCN(Cc3cc4c5c(cnn5c3)N(C)C(=O)N4)CC2)c(C)n1` [Compound 19], for which the IC50 in data set [1] was under 1.52 nM; in data set [2], 1.42 nM; in data set [5] it was 732 nM; in data set [3], 433 nM. Further, the “PARP1/2 Fold selectivity” value in data set [2] is given as 516.

Consider `CNC(=O)c1ccc(N2CCN(Cc3cc4c5c(cnn5C5(CC5)C(=O)N4)c3)C[C@H]2C)c(C)n1` [Compound 40], for which the IC50 in data set [1] came out at 17.9 nM; in data set [2] it was 0.23 nM; in data set [5], 81 nM; in data set [3], 635 nM. Moreover, the AUC(0-t) (as a rule, exposure summed from dosing to a finite time, without extrapolation to infinity) in data set [6] (iv, mouse plasma, i.v.(1mg/kg)) worked out at 4410 ng·h/mL; in data set [6] (po, mouse plasma, p.o.(5mg/kg)), 31100 ng·h/mL. Further, in data set [6] (iv, mouse plasma, i.v.(1mg/kg)), the clearance – broadly, the volume of plasma or blood freed of the substance per unit of time – amounted to 3.8 mL/min/kg. Also, the half-life (in general, the time needed for the level to fall by half in the phase considered) in data set [6] (iv, mouse plasma, i.v.(1mg/kg)) was 3.6 h; in data set [6] (po, mouse plasma, p.o.(5mg/kg)), 3.1 h. Further, the bioavailability in data set [6] (plasma, oral, mouse, p.o.(5mg/kg) versus i.v.(1mg/kg)) worked out at 124%. For the same compound, the “PARP1/2 Fold selectivity” value in data set [2] worked out at 353.6.

For the compound `CNC(=O)c1ccc(N2CCN(Cc3cc4c5c(c3)ncn5[C@@H](C3CC3)C(=O)N4)CC2)c(Cl)n1` [Compound 47-1], the IC50 in data set [1] was 20.2 nM; in data set [2] it was 0.68 nM; in data set [5] it was 901 nM; in data set [3], over 10000 nM. For the same compound, the “PARP1/2 Fold selectivity” value in data set [2] stood at 1326.

Consider `CNC(=O)c1ccc(N2CCN(Cc3cc4c5c(c3)ncn5[C@H](C3CC3)C(=O)N4)CC2)c(Cl)n1` [Compound 47-2], for which the IC50 is 16.7 nM in data set [1], 1.21 nM in data set [2], 281 nM in data set [5] and over 10000 nM in data set [3]. For the same compound, the “PARP1/2 Fold selectivity” value in data set [2] amounted to 232.5.

For the compound `CNC(=O)c1ccc(N2CCN(Cc3cc4c5c(c3)ncn5[C@H](C3CC3)C(=O)N4)CC2)c(C)n1` [Compound 49-2], the IC50 in data set [1] was 18 nM; in data set [2], 1.53 nM; in data set [5], 431 nM; in data set [3], over 10000 nM. In addition, the “PARP1/2 Fold selectivity” value in data set [2] was 281.5.

`CNC(=O)c1ccc(N2CCN(Cc3cc4c5c(cnn5c3)N(C3CC3)C(=O)N4)CC2)c(C)n1` [Compound 54]: the IC50 in data set [1] is under 1.52 nM; in data set [2] it was 0.4 nM; in data set [5] it was 45.2 nM; in data set [3] it was 428 nM. Moreover, in data set [2], the “PARP1/2 Fold selectivity” value was 21.1.

With `CNC(=O)c1ccc(N2CCN(Cc3cc4c5c(cnn5c3)N(C(C)C)C(=O)N4)CC2)c(C)n1` [Compound 56], the half-inhibitory concentration (IC50) in data set [1] turned out to be 15 nM; in data set [2], 3.34 nM; in data set [5], 1220 nM; in data set [3], 878 nM. Further, the “PARP1/2 Fold selectivity” value in data set [2] stood at 364.5.

Consider `CNC(=O)c1ccc(N2CCN(Cc3cc4c5c(cnn5c3)N(C3CCC3)C(=O)N4)CC2)c(C)n1` [Compound 59], for which the IC50 is 6.5 nM in data set [1] and over 10000 nM in data set [3].

As for `CNC(=O)c1ccc(N2CCN(Cc3cc4c5c(cnn5c3)N(CC(F)(F)F)C(=O)N4)CC2)c(C)n1` [Compound 61], the IC50 is 16.2 nM in data set [1] and 1440 nM in data set [3].
